# Measured values reported in patent US9796711B2, “Substituted pyrazolo[3,4-b]pyridin-6-carboxylic acids and method of use” (AbbVie S.àr.l., priority 2015, dated 2017).
# What was measured:
# ΔF508-CFTR [1] = molecular target: T1, ΔF508-CFTR (Homo sapiens, UniProt P13569, DEL508-508); experiment: CFTR cell surface levels using HRP-tagged ΔF508-CFTR expressing CFBE cells, intrinsic corrector capacity; format: cell-based; settings: HRP-tagged ΔF508-CFTR expressing CFBE cells, intrinsic corrector capacity (no co-corrector), 33° C., 20 hours; for EC50: read-out: EC50
# T1 construct: host or cells: CFBE41o-, doxycycline-inducible
# In short: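 Here the cells express ΔF508-CFTR with horseradish peroxidase inserted in extracellular loop 4, so only rescued channel at the surface gives luminescent signal. Compounds act on their own, 20 h at the reduced temperature of 33 °C; values are percent activity relative to DMSO and a 3 μM corrector.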
# ΔF508-CFTR [2] = molecular target: T1, ΔF508-CFTR; experiment: CFTR cell surface levels using HRP-tagged ΔF508-CFTR expressing CFBE cells, in the presence of a co-corrector; format: cell-based; settings: HRP-tagged ΔF508-CFTR expressing CFBE cells, in the presence of 3 μM co-corrector; for EC50: read-out: EC50
# In short: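 Cells were seeded with 0.5 μg/mL doxycycline and held 68 h at 37 °C. Test compounds plus 3 μM co-corrector (final 0.1% DMSO) were then added for 20 h at 33 °C. Washed cells received HRP substrate, and luminescence was normalized between DMSO and 3 μM co-corrector controls.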
# T1 sequence (P13569 with tags, fused parts or gaps DEL508-508): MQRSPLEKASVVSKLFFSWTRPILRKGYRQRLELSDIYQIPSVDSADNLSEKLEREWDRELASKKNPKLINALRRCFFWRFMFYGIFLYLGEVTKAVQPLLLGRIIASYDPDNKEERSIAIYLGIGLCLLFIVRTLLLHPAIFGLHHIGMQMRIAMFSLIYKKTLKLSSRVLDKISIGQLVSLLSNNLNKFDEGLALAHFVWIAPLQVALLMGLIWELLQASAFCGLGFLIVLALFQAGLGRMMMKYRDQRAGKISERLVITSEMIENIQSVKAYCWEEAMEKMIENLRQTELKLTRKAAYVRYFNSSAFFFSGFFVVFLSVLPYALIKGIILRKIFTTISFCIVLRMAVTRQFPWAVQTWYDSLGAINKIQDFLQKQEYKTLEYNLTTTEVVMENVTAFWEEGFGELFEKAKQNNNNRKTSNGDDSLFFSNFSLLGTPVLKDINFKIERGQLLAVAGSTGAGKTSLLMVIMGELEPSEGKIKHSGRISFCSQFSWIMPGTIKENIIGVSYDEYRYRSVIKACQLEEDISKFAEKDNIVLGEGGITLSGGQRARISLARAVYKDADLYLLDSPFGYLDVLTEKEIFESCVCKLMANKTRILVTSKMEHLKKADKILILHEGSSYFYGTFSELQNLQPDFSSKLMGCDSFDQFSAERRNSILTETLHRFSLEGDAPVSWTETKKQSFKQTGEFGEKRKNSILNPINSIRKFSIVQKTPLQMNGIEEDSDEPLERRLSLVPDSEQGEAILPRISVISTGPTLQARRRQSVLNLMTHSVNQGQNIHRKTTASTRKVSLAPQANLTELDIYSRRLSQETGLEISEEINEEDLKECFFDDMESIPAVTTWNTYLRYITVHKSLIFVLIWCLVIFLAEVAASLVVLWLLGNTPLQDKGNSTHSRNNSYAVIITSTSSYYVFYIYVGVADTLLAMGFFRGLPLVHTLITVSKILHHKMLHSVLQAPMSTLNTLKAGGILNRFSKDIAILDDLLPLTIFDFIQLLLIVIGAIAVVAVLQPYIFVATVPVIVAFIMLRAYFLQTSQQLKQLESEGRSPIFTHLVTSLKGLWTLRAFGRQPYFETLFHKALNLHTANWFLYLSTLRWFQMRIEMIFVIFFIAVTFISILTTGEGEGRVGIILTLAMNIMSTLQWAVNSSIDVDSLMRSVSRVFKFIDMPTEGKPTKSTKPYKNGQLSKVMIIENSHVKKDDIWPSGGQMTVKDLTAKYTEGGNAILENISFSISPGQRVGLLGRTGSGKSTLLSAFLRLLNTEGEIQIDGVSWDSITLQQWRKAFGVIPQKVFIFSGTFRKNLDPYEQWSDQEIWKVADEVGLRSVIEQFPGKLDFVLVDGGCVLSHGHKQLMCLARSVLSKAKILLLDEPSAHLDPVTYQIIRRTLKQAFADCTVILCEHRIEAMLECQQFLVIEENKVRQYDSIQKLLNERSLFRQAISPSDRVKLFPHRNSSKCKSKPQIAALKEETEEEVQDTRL
Compound,% Activation (ΔF508-CFTR [1]) [%],EC50 (ΔF508-CFTR [1]) [nM],% Activation (ΔF508-CFTR [2]) [%],EC50 (ΔF508-CFTR [2]) [nM]
"N#CC1CCN(c2ccc(-c3cc(C(=O)O)nc4c3c(C3CCC3)nn4-c3ccnc(N4CCOCC4)c3)cn2)CC1 [compound 416, 4-[6-(4-cyanopiperidin-1-yl)pyridin-3-yl]-3-cyclobutyl-1-[2-(morpholin-4-yl)pyridin-4-yl]-1H-pyrazolo[3,4-b]pyridine-6-carboxylic acid]",179.1,1250,369.5,785
"O=C(O)c1cc(OCC2CCOCC2)c2c(C3CCC3)nn(-c3ccccc3)c2n1 [compound 417, 3-cyclobutyl-4-[(oxan-4-yl)methoxy]-1-phenyl-1H-pyrazolo[3,4-b]pyridine-6-carboxylic acid]",134.8,546,322,318
"COCC1CN(c2cc(C(=O)O)nc3c2c(C2CCC2)nn3-c2ccccc2)C1 [compound 418, 3-cyclobutyl-4-[3-(methoxymethyl)azetidin-1-yl]-1-phenyl-1H-pyrazolo[3,4-b]pyridine-6-carboxylic acid]",144.95,1220,342.25,598
"O=C(O)c1cc(N2CCCC3(CC3)C2)c2c(C3CCC3)nn(-c3ccccc3)c2n1 [compound 419, 4-(5-azaspiro[2.5]octan-5-yl)-3-cyclobutyl-1-phenyl-1H-pyrazolo[3,4-b]pyridine-6-carboxylic acid]",136,983,293.9,509
"N#CC1CCN(c2ccc(-c3cc(C(=O)O)nc4c3c(C3CC(F)(F)C3)nn4-c3ccccc3)cn2)CC1 [compound 420, 4-[6-(4-cyanopiperidin-1-yl)pyridin-3-yl]-3-(3,3-difluorocyclobutyl)-1-phenyl-1H-pyrazolo[3,4-b]pyridine-6-carboxylic acid]",211.15,534,411.25,289
"CO[C@H]1C[C@@H](c2nn(-c3ccccc3)c3nc(C(=O)O)cc(-c4ccc(N5CCC(C#N)CC5)nc4)c32)C1 [compound 421, 4-[6-(4-cyanopiperidin-1-yl)pyridin-3-yl]-3-(cis-3-methoxycyclobutyl)-1-phenyl-1H-pyrazolo[3,4-b]pyridine-6-carboxylic acid]",184.4,1290,368.65,723
"COCCN(C)c1cc(C(=O)O)nc2c1c(C1CCC1)nn2-c1ccccc1 [compound 422, 3-cyclobutyl-4-[(2-methoxyethyl)(methyl)amino]-1-phenyl-1H-pyrazolo[3,4-b]pyridine-6-carboxylic acid]",131.9,1620,336.05,1000
"O=C(O)c1cc(N2CCC3(C2)CC3(F)F)c2c(C3CCC3)nn(-c3ccccc3)c2n1 (stereo not drawn) [compound 423, 3-cyclobutyl-4-(1,1-difluoro-5-azaspiro [2. 4]heptan-5-yl)-1-phenyl-1H-pyrazolo[3,4-b]pyridine-6-carboxylic acid]",113.4,934,299.25,920
"O=C(O)c1cc(N2CC3(CCCCO3)C2)c2c(C3CCC3)nn(-c3ccccc3)c2n1 [compound 424, 3-cyclobutyl-4-(5-oxa-2-azaspiro[3.5]nonan-2-yl)-1-phenyl-1H-pyrazolo[3,4-b]pyridine-6-carboxylic acid]",86.32,1080,254.9,829
"O=C(O)c1cc(N2CC3(CCOCC3)C2)c2c(C3CCC3)nn(-c3ccccc3)c2n1 [compound 425, 3-cyclobutyl-4-(7-oxa-2-azaspiro[3.5]nonan-2-yl)-1-phenyl-1H-pyrazolo[3,4-b]pyridine-6-carboxylic acid]",123.35,990,262.45,349
"O=C(O)c1cc(N2CC3(CCC3)C2)c2c(C3CCC3)nn(-c3ccccc3)c2n1 [compound 426, 4-(2-azaspiro[3.3]heptan-2-yl)-3-cyclobutyl-1-phenyl-1H-pyrazolo[3,4-b]pyridine-6-carboxylic acid]",76.06,998,253.5,897
"O=C(O)c1cc(N2CCC(COCc3ccccc3)CC2)c2c(C3CCC3)nn(-c3ccccc3)c2n1 [compound 427, 4-{4-[(benzyloxy)methyl]piperidin-1-yl}-3-cyclobutyl-1-phenyl-1H-pyrazolo[3,4-b]pyridine-6-carboxylic acid]",200.4,663,418.9,577
"CO[C@H]1CC[C@@H](Oc2cc(C(=O)O)nc3c2c(C2CCC2)nn3-c2ccccc2)CC1 [compound 428, 3-cyclobutyl-4-[(cis-4-methoxycyclohexyl)oxy]-1-phenyl-1H-pyrazolo[3,4-b]pyridine-6-carboxylic acid]",128.05,978,296,380
"CO[C@H]1CC[C@H](Oc2cc(C(=O)O)nc3c2c(C2CCC2)nn3-c2ccccc2)CC1 [compound 429, 3-cyclobutyl-4-[(trans-4-methoxycyclohexyl)oxy]-1-phenyl-1H-pyrazolo[3,4-b]pyridine-6-carboxylic acid]",114.95,979,268.2,370
"CC1(C)CC(c2nn(-c3ccccc3)c3nc(C(=O)O)cc(-c4ccc(N5CCC(C#N)CC5)nc4)c23)C1 [compound 430, 4-[6-(4-cyanopiperidin-1-yl)pyridin-3-yl]-3-(3,3-dimethylcyclobutyl)-1-phenyl-1H-pyrazolo[3,4-b]pyridine-6-carboxylic acid]",175.73,373,342.17,243
"COCC1CCN(c2cc(C(=O)O)nc3c2c(C(C)C)nn3C2CCCCC2)CC1 [compound 431, 1-cyclohexyl-4-[4-(methoxymethyl)piperidin-1-yl]-3-(propan-2-yl)-1H-pyrazolo[3,4-b]pyridine-6-carboxylic acid]",198.57,543,416.6,425
"N#CC1CCN(c2ccc(-c3cc(C(=O)O)nc4c3c([C@H]3C[C@@H](F)C3)nn4-c3ccccc3)cn2)CC1 [compound 432, 4-[6-(4-cyanopiperidin-1-yl)pyridin-3-yl]-3-(cis-3-fluorocyclobutyl)-1-phenyl-1H-pyrazolo[3,4-b]pyridine-6-carboxylic acid]",197.97,561,388.23,298
"N#CC1CCN(c2ccc(-c3cc(C(=O)O)nc4c3c([C@H]3C[C@H](F)C3)nn4-c3ccccc3)cn2)CC1 [compound 433, 4-[6-(4-cyanopiperidin-1-yl)pyridin-3-yl]-3-(trans-3-fluorocyclobutyl)-1-phenyl-1H-pyrazolo[3,4-b]pyridine-6-carboxylic acid]",185.45,629,369.1,367
